Experimental data as given in patent publication EP0093484A2, “Antibacterial monic acid derivatives” (BEECHAM GROUP PLC, priority 1982, dated 1983).

Columns and labels:
M. suipneumoniae NB12 = experiment: Anti-mycoplasmal activity, MIC in Friis broth agarose; format: cell-based; settings: Friis broth solidified with 0.9% agarose, 6 days incubation at 37°C
M. suipneumoniae JF 435 = experiment: as above; format: cell-based; settings: Friis broth solidified with 0.9% agarose, 6 days incubation at 37°C
M. suipneumoniae Str. 11 = experiment: as above; format: cell-based; settings: Friis broth solidified with 0.9% agarose, 6 days incubation at 37°C
[1] = tested on: M. suipneumoniae J2206/183b; experiment: as above; format: cell-based; settings: Friis broth solidified with 0.9% agarose, 6 days incubation at 37°C
M. suipneumoniae MS16 = experiment: as above; format: cell-based; settings: Friis broth solidified with 0.9% agarose, 6 days incubation at 37°C
[2] = tested on: M. suipneumoniae ATCC 25095; experiment: as above; format: cell-based; settings: Friis broth solidified with 0.9% agarose, 6 days incubation at 37°C
M. hyorhinis ATCC 23234 = experiment: as above; format: cell-based; settings: Friis broth solidified with 0.9% agarose, 6 days incubation at 37°C
M. hyorhinis ATCC 25021 = experiment: as above; format: cell-based; settings: Friis broth solidified with 0.9% agarose, 6 days incubation at 37°C
M. bovis NCTC 10131 = experiment: microbe, parasite or virus in culture; format: cell-based; settings: M. bovis NCTC 10131; Friis broth solidified with 0.9% agarose; 6 days incubation at 37°C
[3] = tested on: M. bovigenitalium ATCC 14173; experiment: Anti-mycoplasmal activity, MIC in Friis broth agarose; format: cell-based; settings: Friis broth solidified with 0.9% agarose, 6 days incubation at 37°C
M. dispar NCTC 10125 = experiment: as above; format: cell-based; settings: Friis broth solidified with 0.9% agarose, 6 days incubation at 37°C
M. gallisepticum S6 = experiment: as above; format: cell-based; settings: Friis broth solidified with 0.9% agarose, 6 days incubation at 37°C
E. coli NCTC 10418 [4] = experiment: Human bacteria, MIC by serial dilution in nutrient agar; format: cell-based; settings: E. coli NCTC 10418 (human panel); nutrient agar with 5% chocolated horse blood; 18 hours at 37°C
E. coli ESS = experiment: as above; format: cell-based; settings: nutrient agar with 5% chocolated horse blood, 18 hours at 37°C
P. mirabilis 889 = experiment: as above; format: cell-based; settings: nutrient agar with 5% chocolated horse blood, 18 hours at 37°C
K. aerogenes A = experiment: as above; format: cell-based; settings: nutrient agar with 5% chocolated horse blood, 18 hours at 37°C
[5] = tested on: Pasteurella multocida 1633; experiment: as above; format: cell-based; settings: nutrient agar with 5% chocolated horse blood, 18 hours at 37°C
[6] = tested on: Haemophilus influenzae Q1; experiment: as above; format: cell-based; settings: nutrient agar with 5% chocolated horse blood, 18 hours at 37°C
[7] = tested on: Haemophilus influenzae Wy21; experiment: as above; format: cell-based; settings: nutrient agar with 5% chocolated horse blood, 18 hours at 37°C
[8] = tested on: Neisseria catarrhalis 1502; experiment: as above; format: cell-based; settings: nutrient agar with 5% chocolated horse blood, 18 hours at 37°C
Bacillus subtilis 6633 = experiment: as above; format: cell-based; settings: nutrient agar with 5% chocolated horse blood, 18 hours at 37°C
[9] = tested on: Corynebacterium xerosis 9755; experiment: as above; format: cell-based; settings: nutrient agar with 5% chocolated horse blood, 18 hours at 37°C
Sarcina lutea 8340 = experiment: as above; format: cell-based; settings: nutrient agar with 5% chocolated horse blood, 18 hours at 37°C
Staph. aureus Russell = experiment: as above; format: cell-based; settings: nutrient agar with 5% chocolated horse blood, 18 hours at 37°C
Staph. aureus W2827 = experiment: as above; format: cell-based; settings: nutrient agar with 5% chocolated horse blood, 18 hours at 37°C
Strep. faecalis I = experiment: as above; format: cell-based; settings: nutrient agar with 5% chocolated horse blood, 18 hours at 37°C
[10] = tested on: Strep. pyogenes R80/421-A; experiment: as above; format: cell-based; settings: nutrient agar with 5% chocolated horse blood, 18 hours at 37°C
Strep. spp. 64/848-C = experiment: as above; format: cell-based; settings: nutrient agar with 5% chocolated horse blood, 18 hours at 37°C
Strep. pneumoniae CN33 = experiment: as above; format: cell-based; settings: nutrient agar with 5% chocolated horse blood, 18 hours at 37°C
E. coli NCTC 10418 [11] = experiment: Veterinary bacteria, MIC by two fold serial dilution in agar; settings: E. coli NCTC 10418 (veterinary panel); Diagnostic Sensitivity Test Agar; 18 hours at 37°C
Procedure: (§1) The activity of the compounds of the Examples against various organisms important in veterinary infections was determined using two fold serial dilutions in Diagnostic Sensitivity Test Agar inoculated with 10^4 organisms.

E. coli E1 = experiment: as above; settings: E. coli E1; Diagnostic Sensitivity Test Agar; 18 hours at 37°C
Procedure: as §1

S. dublin S7 = experiment: as above; settings: S. dublin S7; Diagnostic Sensitivity Test Agar; 18 hours at 37°C
Procedure: as §1

S. typhimurium S18 = experiment: as above; settings: S. typhimurium S18; Diagnostic Sensitivity Test Agar; 18 hours at 37°C
Procedure: as §1

Bord. bronchiseptica BO9 = experiment: as above; settings: Bord. bronchiseptica BO9; Diagnostic Sensitivity Test Agar; 18 hours at 37°C
Procedure: as §1

Past. multocida PA1 = experiment: as above; settings: Past. multocida PA1; Diagnostic Sensitivity Test Agar; 18 hours at 37°C
Procedure: as §1

Past. multocida PA2 = experiment: as above; settings: Past. multocida PA2; Diagnostic Sensitivity Test Agar; 18 hours at 37°C
Procedure: as §1

Past. haemolytica PA5 = experiment: as above; settings: Past. haemolytica PA5; Diagnostic Sensitivity Test Agar; 18 hours at 37°C
Procedure: as §1

[12] = tested on: Erysipelothrix rhusiopathiae NCTC 8163; experiment: as above; settings: Erysipelothrix rhusiopathiae NCTC 8163; Diagnostic Sensitivity Test Agar; 18 hours at 37°C
Procedure: as §1

[13] = tested on: Corynebacterium pyogenes CY1; experiment: as above; settings: Corynebacterium pyogenes CY1; Diagnostic Sensitivity Test Agar; 18 hours at 37°C
Procedure: as §1

[14] = tested on: Staph. aureus B4 (pen. resistant); experiment: as above; settings: Staph. aureus B4 (pen. resistant); Diagnostic Sensitivity Test Agar; 18 hours at 37°C
Procedure: as §1

Strep. dysgalactiae SPD1 = experiment: as above; settings: Strep. dysgalactiae SPD1; Diagnostic Sensitivity Test Agar; 18 hours at 37°C
Procedure: as §1

## m-Methylthiobenzyl monate A [Example 5]
M. suipneumoniae NB12
  MIC: 0.5 µg/mL
M. suipneumoniae JF 435
  MIC: 0.5 µg/mL
M. suipneumoniae Str. 11
  MIC: 0.25 µg/mL
[1]
  MIC: 0.5 µg/mL
M. suipneumoniae MS16
  MIC: 0.25 µg/mL
[2]
  MIC: 0.5 µg/mL
M. hyorhinis ATCC 23234
  MIC: 0.25 µg/mL
M. hyorhinis ATCC 25021
  MIC: 0.25 µg/mL
M. bovis NCTC 10131
  MIC: 0.025 µg/mL
[3]
  MIC: 0.025 µg/mL
M. dispar NCTC 10125
  MIC: 0.1 µg/mL
M. gallisepticum S6
  MIC: 5.0 µg/mL
E. coli NCTC 10418 [4]
  MIC: >100 µg/mL
E. coli ESS
  MIC: 5.0 µg/mL
P. mirabilis 889
  MIC: >100 µg/mL
K. aerogenes A
  MIC: >100 µg/mL
[5]
  MIC: 10 µg/mL
[6]
  MIC: 1.0 µg/mL
[7]
  MIC: 1.0 µg/mL
[8]
  MIC: 0.5 µg/mL
Bacillus subtilis 6633
  MIC: 0.1 µg/mL
[9]
  MIC: >100 µg/mL
Sarcina lutea 8340
  MIC: >100 µg/mL
Staph. aureus Russell
  MIC: 1.0 µg/mL
Staph. aureus W2827
  MIC: 0.5 µg/mL
Strep. faecalis I
  MIC: 100 µg/mL
[10]
  MIC: 0.1 µg/mL
Strep. spp. 64/848-C
  MIC: 1.0 µg/mL
Strep. pneumoniae CN33
  MIC: 1.0 µg/mL
E. coli NCTC 10418 [11]
  MIC: >80 µg/mL
E. coli E1
  MIC: >80 µg/mL
S. dublin S7
  MIC: >80 µg/mL
S. typhimurium S18
  MIC: >80 µg/mL
Bord. bronchiseptica BO9
  MIC: 2.5 µg/mL
Past. multocida PA1
  MIC: 2.5 µg/mL
Past. multocida PA2
  MIC: .625 µg/mL
Past. haemolytica PA5
  MIC: 10 µg/mL
[12]
  MIC: 5 µg/mL
[13]
  MIC: >80 µg/mL
[14]
  MIC: .156 µg/mL
Strep. dysgalactiae SPD1
  MIC: .07 µg/mL
